The record followed here is patent publication US5118686A, “Phenylpyrimidones” (Smith Kline & French Laboratories Limited, priority 1989, dated 1992).

Assay [1] deals with U46619-induced bronchoconstriction. Briefly: Bronchodilatation - In vivo (inhibition of U46619-induced bronchoconstriction in anaesthetised guinea-pigs). The conditions noted are these: Cavia porcellus, iv; i.v. bolus; U46619 infused i.v. 2.5 nmol/min; peak inhibition; read-out: BD50 (dose of compound required to reduce the U46619-induced bronchoconstriction by 50%). Details: species or system guinea-pig (Dunkin Hartley strain, male). The method, then:
Male guinea-pigs of the Dunkin Hartley strain (500-600g) were anaesthetised with Sagatal (pentobarbital sodium) (60 mg/kg). Airway resistance was measured using a modification of the classical Konzett-Rossler technique (J. pharm. Methods, 13, 309-315, 1985). U46619 (9,11-methanoepoxy-PGH2) was infused i.v. at a rate of 2.5 nmol/min, this produced a steady state of bronchoconstriction (approximately 120% increase from basal airway resistance). The compound under test was administered by i.v. bolus injection, and the subsequent peak inhibition of bronchoconstriction recorded.

The test system of assay [2] is spontaneous colonic activity (distal colon segment). Nature of the assay: Inhibition of spontaneous colonic activity - in vitro. The conditions noted are these: Cavia porcellus; isolated distal colon, Krebs solution, 37° C.; read-out: IC50 (concentration of compound required to reduce spontaneous colonic activity by 50%). More on the design: species or system guinea-pig (male albino). An excerpt:
Male albino guinea-pigs (300-400g) were killed by a blow to the back of the head and exsanguinated. A 2cm long segment of the proximal part of the hypogastric loop of the distal colon was rapidly dissected out and placed in oxygenated (95% O2, 5% CO2) modified warm Krebs solution. The tissue was cleaned out with Krebs and the adjoining mesentery discarded. Cotton was then tied to each end and the colon was attached to a tissue holder in an organ bath containing modified oxygenated Krebs solution at 37° C. The other end of the tissue was tied to an isometric transducer and placed under 1 g tension. Force developed by the muscle was detected by the transducer, and recorded on a multitrace pen recorder. Spontaneous colonic activity, as assessed by the contraction distance over a five minute period, was subjected to computer analysis.
The tissues were allowed to settle at a resting tension of 1 g for 1 hour, during which time they were washed at 15 minute intervals. Three samples of pre-dose activity were taken and averaged. The tissues were then dosed and two samples of post-dose activity were taken. The lowest value was used to calculate the percentage relaxation, and log dose response curves were constructed. The tissues were washed 10 minutes after dosing and left for 15 minutes to settle prior to the next control period.
The concentration of compound required to reduce spontaneous colonic activity by 50% is given as the IC50.

Take `CCCOc1ccccc1-c1nc(NC(=O)NC)cc(=O)[nH]1` [Example 5, 6-N'-methylureido-2-(2-propoxyphenyl)pyrimidin-4[3H]-one]: the ED50 in assay [1] is 8.34 µmol/kg. In assay [2], the IC50 is 2.4 µM. Take `CCCOc1ccccc1-c1nc(O)cc(CC)n1` [Example 18, 4-Ethyl-6-hydroxy-2-(2-propoxyphenyl)pyrimidine]: the ED50 in assay [1] was determined as 9.7 µmol/kg. For the same compound, in assay [2], the IC50 is 3.3 µM. `CCCOc1ccccc1-c1nc(O)cc(C#N)n1` [Example 16, 4-cyano-6-hydroxy-2-(2-propoxyphenyl)pyrimidine]: the ED50 in assay [1] is 6.03 µmol/kg. Regarding `CCCOc1ccccc1-c1nc(O)cc(C(=O)NCC)n1` [Example 21, N-Ethyl 6-hydroxy-2-(2-propoxyphenyl)pyrimidine-4-carboxamide], the IC50 in assay [2] stood at 3.7 µM. For `CCCOc1ccccc1-c1nc(O)cc(C(N)=O)n1` [Example 15, 6-Hydroxy-2-(2-propoxyphenyl)pyrimidine-4-carboxamide], the IC50 in assay [2] was determined as 0.75 µM.
